Experimental data published in patent publication US10392357B2, “Glucagon-like peptide 1 modulator and uses thereof” (Academia Sinica, priority 2015, dated 2019).

What follows are compounds tested against T1, GLP-1R (UniProt P01275+P32301) (assay: cell-based). Settings: RINm5F cells.
T1 construct: endogenous in cells; host or cells: RINm5F cells stably expressing the RG-cAMP BRET sensor
Format: cell-based
Parameters: Activity % of compound 1 (potentiation of GLP-1 induced cAMP production): concentration or dose not given beside the values
Procedure: Next day, cells were washed twice with 0.1 ml phenol red-free MEM containing 5 mM HEPES, and incubated in the same medium for 1 h. The medium was replaced with 90 μL the same medium containing 1 mg/ml BSA and 5 μM DeepBlueC. The whole plate was immediately loaded onto a SpectraMax Paradigm Detection Platform equipped with a Dual-Color luminescence detection cartridge and SoftMax Pro 6.2.2 (Molecular Devices, Sunnyvale, Calif.) to obtain the background BRET signal based on the sequential integration of the luminescence detected at 370-450 and 500-530 nm over 60-150 s. Each well was then stimulated by adding 10 μl of 10× solutions of peptide and lipids and 1 mg/ml BSA in phenol red-free MEM containing 5 mM HEPES, and BRET signals were obtained immediately under identical settings. The BRET ratio is the ratio of light emitted between 90 and 300 s at 500-530 nm to that emitted at 370-450 nm. […] The dose-response curve, maximal response, and concentration of peptide needed to yield half-maximal response (EC50) were obtained by nonlinear regression to fit the data to the agonist versus response equation using Prism software 5.0 (GraphPad, San Diego). Unless specified, all cAMP response data are the means±S.E. from three independent experiments with triplicate assays.

T1 sequence (P32301 22-463): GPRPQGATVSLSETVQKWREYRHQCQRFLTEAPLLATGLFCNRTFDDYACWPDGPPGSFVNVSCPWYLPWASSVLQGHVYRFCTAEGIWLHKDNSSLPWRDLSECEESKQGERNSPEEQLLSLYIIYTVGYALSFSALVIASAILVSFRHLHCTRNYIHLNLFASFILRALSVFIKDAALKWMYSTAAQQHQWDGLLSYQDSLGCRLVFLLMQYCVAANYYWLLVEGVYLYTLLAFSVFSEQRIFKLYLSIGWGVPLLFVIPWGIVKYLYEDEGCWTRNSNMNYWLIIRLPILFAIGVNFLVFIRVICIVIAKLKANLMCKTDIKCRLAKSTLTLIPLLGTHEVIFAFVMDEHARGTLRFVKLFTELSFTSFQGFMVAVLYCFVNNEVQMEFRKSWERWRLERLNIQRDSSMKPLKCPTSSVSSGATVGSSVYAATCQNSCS
T1 sequence (P01275 98-127 limits assumed): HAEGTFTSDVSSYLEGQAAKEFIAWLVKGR

Compound | relative potency among the compounds of formula (I) tested in example 2
CCCCC/C=C\C/C=C\CCCCCCCC(=O)NC1C(=O)OC(C)C1C (stereo not shown) [Compound 1, (9Z,12Z)-N-(4,5-Dimethyl-2-oxotetrahydrofuran-3-yl)octadeca-9,12-dienamide] | most potency

Same assay, conditions: RINm5F cells; FIG. 1A to 1E

Compound | effect on GLP-1R signaling (GLP-1 induced cAMP production)
CCCCC/C=C\C/C=C\CCCCCCCC(=O)NC1C(=O)OC(C)C1C (stereo not shown) [Compound 1, (9Z,12Z)-N-(4,5-Dimethyl-2-oxotetrahydrofuran-3-yl)octadeca-9,12-dienamide] | enhance the GLP-1R signaling
CCC=CCC=CCC=CCC=CCC=CCC=CCCC(=O)N[C@H]1C(=O)O[C@@H](C)[C@@H]1C [Compound 12] | enhance the GLP-1R signaling

Same assay, conditions: compound 1 increased from 0.8 μM to 26 μM; FIG. 2 panel A

Compound | shift of the GLP-1 dose-response curve (cAMP production) to the left
CCCCC/C=C\C/C=C\CCCCCCCC(=O)NC1C(=O)OC(C)C1C (stereo not shown) [Compound 1, (9Z,12Z)-N-(4,5-Dimethyl-2-oxotetrahydrofuran-3-yl)octadeca-9,12-dienamide] | > 10 fold

Same assay, conditions: dose dependent and saturable; FIG. 2 panel B

Compound | EC50
CCCCC/C=C\C/C=C\CCCCCCCC(=O)NC1C(=O)OC(C)C1C (stereo not shown) [Compound 1, (9Z,12Z)-N-(4,5-Dimethyl-2-oxotetrahydrofuran-3-yl)octadeca-9,12-dienamide] | 3.7 µM

Same assay, conditions: relative to compound 1 = 100

Compound | Activity % of compound 1 (potentiation of GLP-1 induced cAMP production)
CCCCC/C=C/C/C=C/CCCCCCCC(=O)OCC(O)CO (stereo not shown) [1-monolinolein] | 80%
C[C@@H]([C@H](C)O)[C@H](N)C(=O)O [4-hydroxyisoleucine] | <10%
CCCCCC/C=C/C=C/CCCCCCCC(=O)O [9(E),11(E)-conjugated linoleic acid] | 30%
CCCCCC/C=C/C=C\CCCCCCCC(=O)O [9(Z),11(E)-conjugated linoleic acid] | 25%
CCCCC/C=C\C=C\CCCCCCCCC(=O)O [10(E),12(Z)-conjugated linoleic acid] | 30%
CCCCCC/C=C/CCCCCCCCCC(=O)O [11-trans-octadecenoic acid] | 10%
CCCCC/C=C\C/C=C\CCCCCCCC(=O)NC1C(=O)OC(C)C1C (stereo not shown) [Compound 1, (9Z,12Z)-N-(4,5-Dimethyl-2-oxotetrahydrofuran-3-yl)octadeca-9,12-dienamide] | 100%
CC/C=C\C/C=C\C/C=C\C/C=C\C/C=C\C/C=C\CCC(=O)O [Docosahexaenoic acid] | 60%
CC/C=C\C/C=C\C/C=C\C/C=C\C/C=C\C/C=C\CCC(=O)NCCO [Docosahexaenoyl ethanolamide] | 20%
CC/C=C/C/C=C/C/C=C/C/C=C/C/C=C/C/C=C/CCC(=O)NCC(=O)O [Docosahexaenoyl glycine] | 15%
CC/C=C\C/C=C\C/C=C\C/C=C\C/C=C\C/C=C\CCC(=O)NCCc1c[nH]c2ccc(O)cc12 [Docosahexaenoyl serotonin] | 15%
CC/C=C\C/C=C\C/C=C\C/C=C\C/C=C\CCCC(=O)O [Eicosapentaenoic acid] | 60%
CC/C=C\C/C=C\C/C=C\C/C=C\C/C=C\CCCC(=O)NCCO [Eicosapentaenoyl ethanolamide] | 90%
CC/C=C\C/C=C\C/C=C\C/C=C\C/C=C\CCCC(=O)NCCc1c[nH]c2ccc(O)cc12 [Eicosapentaenoyl serotonin] | 20%
CCCCC/C=C\C/C=C\CCCCCCCC(=O)OCC [Ethyl linoleate] | 60%
CCCCC/C=C/C/C=C/CCCCCCCC(=O)O [Linoelaidic acid] | 30%
CCCCC/C=C\C/C=C\CCCCCCCC(=O)NCCO [Linoleoyl ethanolamide] | 90%
CCCCC/C=C\C/C=C\CCCCCCCC(=O)NCC(=O)O [Linoleoyl glycine] | 80%
CCCCC/C=C\C/C=C\CCCCCCCC(=O)OC [Methyl cis,cis-9,12-octadecadienoate] | 15%
CCCCC/C=C/C/C=C/CCCCCCCC(=O)OC [Methyl linolelaidate] | 30%
CCCCC/C=C\C/C=C\C/C=C\CCCCC(=O)OC [Methyl γ-linolenate] | 20%
CC/C=C\C/C=C\C/C=C\CCCCCCCC(=O)N[C@@H](Cc1ccc(O)cc1)C(=O)O [N-(α-linolenoyl) tyrosine] | 70%
CCCCCCCC/C=C\CCCCCCCC(=O)O [Oleic acid] | 35%
CCCCC/C=C\C/C=C\CCCCCCCC(=O)OC [linoleic acid methyl ester] | 30%
CC/C=C\C/C=C\C/C=C\CCCCCCCC(=O)OC [linolenic acid methyl ester] | 15%
CC/C=C\C/C=C\C/C=C\CCCCCCCC(=O)O [α-linolenic acid] | 15%
CCCCC/C=C\C/C=C\C/C=C\CCCCC(=O)OC [γ-linoleic acid methyl ester] | 25%
Cis-octadecenoic acid | 25%

Same assay, conditions: relative to compound 1 = 100; listed as eicosanpentaenoyl ethanolamide

Compound | Activity % of compound 1 (potentiation of GLP-1 induced cAMP production)
CC/C=C\C/C=C\C/C=C\C/C=C\C/C=C\CCCC(=O)NCCO [Eicosapentaenoyl ethanolamide] | about 90%

Same assay, conditions: relative to compound 1 = 100; listed as linoleoyl ethanolamide

Compound | Activity % of compound 1 (potentiation of GLP-1 induced cAMP production)
CCCCC/C=C\C/C=C\CCCCCCCC(=O)NCCO [Linoleoyl ethanolamide] | about 90%

Each compound was assayed against T2, GLP-1R-V2R chimeric (Homo sapiens, UniProt P01275+P43220) (assay: Receptor endocytosis assay in U2OS cells co-expressing GLP-1R-V2R and β-arrestin2:GFP). Settings: not given.
T2 construct: the first 440 amino acids of the GLP-1R (Met-1 to Thr-440); vasopressin V2 receptor C-terminal tail, last 29 amino acids, Ala-343 to Ser-371 (AVPR2); expressed in transfected cells; host or cells: U2OS osteosarcoma cells stably expressing beta-arrestin2:GFP (Norak Biosciences), transfected with pcDNA3-GLP-1R-V2R
T2 sequence (P43220 with tags, fused parts or gaps limits assumed): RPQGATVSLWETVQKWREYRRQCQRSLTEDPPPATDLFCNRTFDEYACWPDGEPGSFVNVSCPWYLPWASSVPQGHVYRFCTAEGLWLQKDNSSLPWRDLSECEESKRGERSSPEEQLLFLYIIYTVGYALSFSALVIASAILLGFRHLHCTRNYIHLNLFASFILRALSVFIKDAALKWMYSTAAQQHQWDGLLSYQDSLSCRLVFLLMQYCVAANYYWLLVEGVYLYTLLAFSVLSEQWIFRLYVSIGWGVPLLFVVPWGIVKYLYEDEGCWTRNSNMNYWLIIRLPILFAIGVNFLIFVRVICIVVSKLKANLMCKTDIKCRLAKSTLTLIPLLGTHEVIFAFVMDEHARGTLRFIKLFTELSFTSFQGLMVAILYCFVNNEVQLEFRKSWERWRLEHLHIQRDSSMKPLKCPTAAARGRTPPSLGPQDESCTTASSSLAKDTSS
T2 sequence (P01275 98-127 limits assumed, stated change not applied): as the sequence (P01275 98-127 limits assumed) above
Format: cell-based

Compound | EC50
CCCCC/C=C\C/C=C\CCCCCCCC(=O)NC1C(=O)OC(C)C1C (stereo not shown) [Compound 1, (9Z,12Z)-N-(4,5-Dimethyl-2-oxotetrahydrofuran-3-yl)octadeca-9,12-dienamide] | 0.87 µM

The compounds below were run on RINm5F cells (assay: GLP-1-elicited insulin release from RINm5F cells). Settings: 2 nM GLP-1 alone; FIG. 4.
Format: cell-based

Compound | insulin release from RINm5F cells
GLP-1(7-36)-amide | stimulated a low level of insulin release

Same assay, conditions: 7.7 μM compound added to 2 nM GLP-1; FIG. 4

Compound | effect on insulin release elicited by GLP-1
CCCCC/C=C\C/C=C\CCCCCCCC(=O)NC1C(=O)OC(C)C1C (stereo not shown) [Compound 1, (9Z,12Z)-N-(4,5-Dimethyl-2-oxotetrahydrofuran-3-yl)octadeca-9,12-dienamide] | significantly enhanced

Same assay, conditions: compound alone, without GLP-1; FIG. 4

Compound | insulin release by compound alone
CCCCC/C=C\C/C=C\CCCCCCCC(=O)NC1C(=O)OC(C)C1C (stereo not shown) [Compound 1, (9Z,12Z)-N-(4,5-Dimethyl-2-oxotetrahydrofuran-3-yl)octadeca-9,12-dienamide] | did not trigger any insulin release

What follows are compounds tested on H460 cells (assay: Cell viability test (PrestoBlue) in H460 cells). Settings: 72-h treatment, FIG. 5.
Format: cell-based
Procedure: Cytotoxicity of H460 cells to various compounds was assessed using PrestoBlue® reagent, which was modified by the reducing environment of the viable cell and turns from blue to red in color. In brief, 3,000 H460 cells were seeded with 0.1 ml of RPMI 1640 medium in each well of a 96-well plate and incubated at 37° C. for 24 h before compound treatment. After a 72-h compound treatment, PrestoBlue™ cell viability reagent (Invitrogen) was added to each well according to the manufacturer's protocol. The plates were further incubated in the dark at 37° C. in 5% CO2 for 10 min, and absorbance of all wells was read at both the 570- and 600-nm wavelengths using automatic enzyme-linked immunosorbent assay plate reader (Molecular Devices, Union City, Calif.). The raw data were normalized and corrected according to the manufacturer's protocol. All samples were tested in triplicate, and each test was repeated three times. Cell viability was calculated using the following formula: percent of 100×(average corrected values of compound treated cells)/(average corrected values of untreated cells).

Compound | IC50
N.N.[Cl][Pt][Cl] [cisplatin] | 6.7 µM

Same assay, conditions: test concentration 0.78 to 100 μM, 72-h treatment, FIG. 5

Compound | cytotoxicity
CCCCCCCC/C=C\CCCCCCCC(=O)OC(CO)CO [2-oleoylglycerol] | did not exhibit detectable cytotoxicity
CCCCC/C=C\C/C=C\CCCCCCCC(=O)NC1C(=O)OC(C)C1C (stereo not shown) [Compound 1, (9Z,12Z)-N-(4,5-Dimethyl-2-oxotetrahydrofuran-3-yl)octadeca-9,12-dienamide] | did not exhibit detectable cytotoxicity
CCCCCCCC/C=C\CCCCCCCC(=O)NCCO [oleoylethanolamide] | did not exhibit detectable cytotoxicity
